Measured values published in US6380203B1, “Angiogenesis inhibitors” (Merck & Co., Inc., priority 1998, dated 2002).

- melting point: 149 to 151 °C
Structure (SMILES): c1cc(-c2cnn3cc(-c4ccc(OCCN5CCOCC5)cc4)cnc23)cs1 [Example 4, 3-(3-thienyl)-6-(4-(2-(4-morpholinyl)ethoxy)phenyl) pyrazolo(1,5-A)pyrimidine]
